Test results taken from paper PMC5910287 (ACS chemical biology, 2018).

System: L. lactis HP
Assay: Minimal inhibitory concentrations determined in liquid media
Format: cell-based, Lactococcus lactis
Conditions: serial two-fold dilution, Fig. S12

lacticin 481 [wt-lacticin 481]
Minimal inhibitory concentration: 0.39 µM
